Test results reported in PMC6407917, “Identification of GSK3186899/DDD853651 as a Preclinical Development Candidate for the Treatment of Visceral Leishmaniasis” (Journal of Medicinal Chemistry, 2018).

What was measured:
Experiment in all cases: biochemical
Set-up in all cases: species or system HEK293/K-562/placenta mixed human extract; Kinobeads chemoproteomic competition binding, quantified by TMT LC-MS/MS, dose response up to 20 uM
BRAF = BRAF (Homo sapiens, UniProt P15056)
BRSK2 = BRSK2 (Homo sapiens, UniProt Q8IWQ3)
BTK = BTK (Homo sapiens, UniProt Q06187)
CAMK2D = CAMK2D (Homo sapiens, UniProt Q13557)
CAMK2D, sequence (Q13557 whole entry): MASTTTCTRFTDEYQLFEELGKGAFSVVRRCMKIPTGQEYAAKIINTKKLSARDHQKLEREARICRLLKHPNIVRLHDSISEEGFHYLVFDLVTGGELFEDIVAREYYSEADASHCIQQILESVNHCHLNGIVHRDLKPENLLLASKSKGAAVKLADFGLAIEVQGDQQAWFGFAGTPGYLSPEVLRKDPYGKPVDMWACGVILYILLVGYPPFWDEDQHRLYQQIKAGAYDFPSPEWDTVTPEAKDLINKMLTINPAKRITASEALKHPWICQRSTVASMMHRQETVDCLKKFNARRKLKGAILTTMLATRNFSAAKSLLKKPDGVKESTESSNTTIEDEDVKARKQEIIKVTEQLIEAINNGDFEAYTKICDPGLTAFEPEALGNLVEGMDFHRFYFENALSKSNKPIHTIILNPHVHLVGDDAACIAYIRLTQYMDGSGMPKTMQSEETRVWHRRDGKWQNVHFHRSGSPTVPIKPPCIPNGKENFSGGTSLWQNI

CAMKK2 = CAMKK2 (Homo sapiens, UniProt Q96RR4)
CDK9 = CDK9 (Homo sapiens, UniProt P50750)
DYRK2 = DYRK2 (Homo sapiens, UniProt Q92630)
DYRK2, sequence (Q92630 whole entry): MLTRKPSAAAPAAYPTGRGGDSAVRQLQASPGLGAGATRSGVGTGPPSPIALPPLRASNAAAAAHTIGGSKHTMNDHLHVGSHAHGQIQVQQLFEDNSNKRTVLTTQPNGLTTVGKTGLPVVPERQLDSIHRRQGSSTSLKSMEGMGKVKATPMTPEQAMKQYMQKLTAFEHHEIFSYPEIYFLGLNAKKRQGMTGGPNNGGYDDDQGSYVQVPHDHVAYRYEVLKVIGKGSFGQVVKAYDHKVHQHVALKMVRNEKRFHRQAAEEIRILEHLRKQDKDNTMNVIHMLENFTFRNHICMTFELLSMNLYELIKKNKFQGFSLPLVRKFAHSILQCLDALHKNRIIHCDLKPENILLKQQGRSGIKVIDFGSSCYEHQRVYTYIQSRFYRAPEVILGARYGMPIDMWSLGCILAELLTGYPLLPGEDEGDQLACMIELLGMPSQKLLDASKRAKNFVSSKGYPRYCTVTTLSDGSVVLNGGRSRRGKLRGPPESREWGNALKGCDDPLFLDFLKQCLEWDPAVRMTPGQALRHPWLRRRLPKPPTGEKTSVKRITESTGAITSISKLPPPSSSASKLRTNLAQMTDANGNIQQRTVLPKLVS

EPHA1 = EPHA1 (Homo sapiens, UniProt P21709)
GAK = GAK (Homo sapiens, UniProt O14976)
JAK1 = JAK1 (Homo sapiens, UniProt P23458)
JAK1, sequence (P23458 whole entry): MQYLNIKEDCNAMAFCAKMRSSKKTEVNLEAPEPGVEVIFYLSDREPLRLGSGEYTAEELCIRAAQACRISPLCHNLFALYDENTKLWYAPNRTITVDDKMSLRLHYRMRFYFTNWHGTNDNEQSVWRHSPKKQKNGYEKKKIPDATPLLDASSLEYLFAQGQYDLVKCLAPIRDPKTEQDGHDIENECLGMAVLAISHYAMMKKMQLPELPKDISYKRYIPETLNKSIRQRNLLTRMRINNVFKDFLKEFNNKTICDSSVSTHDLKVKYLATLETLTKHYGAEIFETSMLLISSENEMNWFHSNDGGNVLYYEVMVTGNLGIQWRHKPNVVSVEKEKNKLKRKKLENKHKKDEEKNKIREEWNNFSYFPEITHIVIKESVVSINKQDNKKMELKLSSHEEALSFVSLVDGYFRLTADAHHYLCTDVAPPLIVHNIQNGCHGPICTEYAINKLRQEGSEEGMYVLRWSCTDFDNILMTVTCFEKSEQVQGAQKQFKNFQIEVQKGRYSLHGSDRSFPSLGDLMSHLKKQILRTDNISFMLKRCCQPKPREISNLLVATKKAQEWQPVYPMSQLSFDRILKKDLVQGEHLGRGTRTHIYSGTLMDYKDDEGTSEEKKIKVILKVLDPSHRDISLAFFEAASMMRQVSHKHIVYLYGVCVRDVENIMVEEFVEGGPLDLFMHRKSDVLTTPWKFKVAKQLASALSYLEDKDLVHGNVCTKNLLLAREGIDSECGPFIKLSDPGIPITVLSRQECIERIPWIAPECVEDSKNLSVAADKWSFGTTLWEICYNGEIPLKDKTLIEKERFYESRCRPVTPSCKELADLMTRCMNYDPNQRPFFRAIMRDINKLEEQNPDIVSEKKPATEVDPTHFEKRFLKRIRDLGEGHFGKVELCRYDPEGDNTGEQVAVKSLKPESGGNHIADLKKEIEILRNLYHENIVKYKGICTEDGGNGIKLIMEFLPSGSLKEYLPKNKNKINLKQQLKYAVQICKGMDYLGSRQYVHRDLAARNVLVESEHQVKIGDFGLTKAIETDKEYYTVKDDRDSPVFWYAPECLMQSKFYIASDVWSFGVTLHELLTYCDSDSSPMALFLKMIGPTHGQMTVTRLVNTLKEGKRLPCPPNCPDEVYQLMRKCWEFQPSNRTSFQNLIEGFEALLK

KDR = KDR (Homo sapiens, UniProt P35968)
MAP2K2 = MAP2K2 (Homo sapiens, UniProt P36507)
MAP2K4 = MAP2K4 (Homo sapiens, UniProt P45985)
PRKCD = PRKCD (Homo sapiens, UniProt Q05655)
PRKCQ = PRKCQ (Homo sapiens, UniProt Q04759)
PRKD1 = PRKD1 (Homo sapiens, UniProt Q15139)
PRKD1, sequence (Q15139 whole entry): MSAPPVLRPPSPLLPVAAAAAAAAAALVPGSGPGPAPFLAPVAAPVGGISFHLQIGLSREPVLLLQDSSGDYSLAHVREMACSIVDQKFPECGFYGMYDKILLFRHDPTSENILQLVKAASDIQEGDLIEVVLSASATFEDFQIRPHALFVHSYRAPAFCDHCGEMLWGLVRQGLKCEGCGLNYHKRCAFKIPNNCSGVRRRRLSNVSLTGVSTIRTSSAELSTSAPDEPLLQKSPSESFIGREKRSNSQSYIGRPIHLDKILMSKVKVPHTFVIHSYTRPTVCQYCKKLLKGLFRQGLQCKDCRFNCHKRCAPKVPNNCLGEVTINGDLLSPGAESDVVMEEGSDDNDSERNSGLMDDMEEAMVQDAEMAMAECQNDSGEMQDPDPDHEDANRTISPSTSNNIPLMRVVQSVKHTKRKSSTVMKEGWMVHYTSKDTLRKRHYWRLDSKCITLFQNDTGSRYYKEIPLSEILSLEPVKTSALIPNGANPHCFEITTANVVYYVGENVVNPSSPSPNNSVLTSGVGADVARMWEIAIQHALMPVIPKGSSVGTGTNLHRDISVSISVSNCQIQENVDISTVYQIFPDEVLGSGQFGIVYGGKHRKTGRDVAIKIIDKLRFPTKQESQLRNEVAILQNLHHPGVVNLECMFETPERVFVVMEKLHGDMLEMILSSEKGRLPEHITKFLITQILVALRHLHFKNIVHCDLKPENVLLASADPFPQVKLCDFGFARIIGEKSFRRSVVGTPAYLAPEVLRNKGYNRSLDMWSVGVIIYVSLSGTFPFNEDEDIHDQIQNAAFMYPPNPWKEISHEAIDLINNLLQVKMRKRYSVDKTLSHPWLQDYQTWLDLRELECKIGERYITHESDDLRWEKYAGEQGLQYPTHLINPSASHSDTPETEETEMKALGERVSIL

PRKD2 = PRKD2 (Homo sapiens, UniProt Q9BZL6)
PRKD3 = PRKD3 (Homo sapiens, UniProt O94806)
PTK2 = PTK2 (Homo sapiens, UniProt Q05397)
PTK2, sequence (Q05397 whole entry): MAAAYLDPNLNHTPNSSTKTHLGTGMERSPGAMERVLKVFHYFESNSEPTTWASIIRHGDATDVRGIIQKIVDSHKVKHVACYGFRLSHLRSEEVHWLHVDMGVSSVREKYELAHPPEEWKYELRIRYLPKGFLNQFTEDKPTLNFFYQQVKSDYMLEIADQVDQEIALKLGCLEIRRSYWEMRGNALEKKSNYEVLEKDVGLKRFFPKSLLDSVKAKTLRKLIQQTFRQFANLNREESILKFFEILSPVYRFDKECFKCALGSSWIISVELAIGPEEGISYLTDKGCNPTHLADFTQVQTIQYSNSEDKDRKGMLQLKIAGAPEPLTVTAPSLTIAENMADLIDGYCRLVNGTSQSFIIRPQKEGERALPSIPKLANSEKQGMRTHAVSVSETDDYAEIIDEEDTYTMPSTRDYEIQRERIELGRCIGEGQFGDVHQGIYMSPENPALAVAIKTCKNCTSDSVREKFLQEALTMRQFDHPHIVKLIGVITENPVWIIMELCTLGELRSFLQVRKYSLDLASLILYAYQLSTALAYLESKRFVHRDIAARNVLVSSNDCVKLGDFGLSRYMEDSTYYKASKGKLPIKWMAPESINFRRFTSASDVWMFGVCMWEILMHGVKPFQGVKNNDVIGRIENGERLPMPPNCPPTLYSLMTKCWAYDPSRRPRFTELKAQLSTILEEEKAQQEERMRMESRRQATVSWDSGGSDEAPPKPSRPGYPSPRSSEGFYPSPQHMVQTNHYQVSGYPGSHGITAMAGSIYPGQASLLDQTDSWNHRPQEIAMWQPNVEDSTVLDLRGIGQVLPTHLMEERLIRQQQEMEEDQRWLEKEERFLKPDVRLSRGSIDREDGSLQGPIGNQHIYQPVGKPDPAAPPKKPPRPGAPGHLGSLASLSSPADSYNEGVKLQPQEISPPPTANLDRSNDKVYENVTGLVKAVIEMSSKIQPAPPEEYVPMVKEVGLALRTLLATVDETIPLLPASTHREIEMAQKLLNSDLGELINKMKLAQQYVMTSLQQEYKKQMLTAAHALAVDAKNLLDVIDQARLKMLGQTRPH

SLK = SLK (Homo sapiens, UniProt Q9H2G2)
TNK2 = TNK2 (Homo sapiens, UniProt Q07912)

Measured: IC50

BRAF, sequence (P15056 whole entry): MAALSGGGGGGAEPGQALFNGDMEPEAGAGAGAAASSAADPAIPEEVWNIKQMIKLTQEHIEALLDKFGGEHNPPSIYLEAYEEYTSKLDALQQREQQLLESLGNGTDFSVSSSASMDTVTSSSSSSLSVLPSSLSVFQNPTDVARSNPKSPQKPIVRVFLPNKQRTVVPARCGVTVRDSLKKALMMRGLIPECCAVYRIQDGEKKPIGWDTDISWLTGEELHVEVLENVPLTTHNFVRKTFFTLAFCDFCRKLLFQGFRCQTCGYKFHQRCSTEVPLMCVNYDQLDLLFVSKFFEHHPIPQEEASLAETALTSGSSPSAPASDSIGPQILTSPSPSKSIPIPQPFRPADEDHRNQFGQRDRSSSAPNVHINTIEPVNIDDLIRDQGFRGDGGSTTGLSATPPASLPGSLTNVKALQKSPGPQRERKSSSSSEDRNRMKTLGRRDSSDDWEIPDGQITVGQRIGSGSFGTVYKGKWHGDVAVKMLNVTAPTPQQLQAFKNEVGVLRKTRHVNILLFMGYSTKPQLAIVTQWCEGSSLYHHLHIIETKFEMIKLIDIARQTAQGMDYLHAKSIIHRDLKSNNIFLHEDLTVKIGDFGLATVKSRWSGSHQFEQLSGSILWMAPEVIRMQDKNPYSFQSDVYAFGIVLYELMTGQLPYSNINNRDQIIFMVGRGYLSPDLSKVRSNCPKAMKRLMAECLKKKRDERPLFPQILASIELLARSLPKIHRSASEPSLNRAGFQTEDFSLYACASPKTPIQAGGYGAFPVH

COc1nc(N[C@H]2CC[C@H](NS(=O)(=O)CC(C)C)CC2)nc2[nH]nc(N3CCOC[C@H]3C)c12 [compound 39, N-(trans-4-((4-Methoxy-3-((R)-3-methylmorpholino)-1H-pyrazolo[3,4-d]pyrimidin-6-yl)amino)cyclohexyl)-2-methylpropane-1-sulfonamide]
≥ 20 µM: all assays above
